For orientation: IC50 means the concentration needed to halve the response being measured.

The values that follow come from paper PMC11523213, “Fluorinated N-Heterocyclic Carbene Silver(I) Complexes with High Cancer Cell Selectivity” (Organometallics, 2024).

Experiment [1] relates to ARPE-19. The experiment is described as follows: Cell viability (MTT) assay, 24 h, noncancerous cells. Format: cell-based, human. To be noted: n = 9, noncancerous retinal epithelia, read-out: IC50 ± SD, ARPE-19. Here is the method: (§1) All cells were treated with compounds for 24 h, and cell viability was determined via the MTT assay. […] The nonfluorinated benzyl–imidazole complex [Ag2(L5)2](PF6)2 was synthesized and screened to determine if the fluorine has any influence on cytotoxicity.
(§2) All cytotoxicity assays were conducted using human cell lines: breast adenocarcinomas (MDA-MB-231 and MCF-7) and non-cancerous epithelial retinal (ARPE-19) cell lines. All cell lines were routinely maintained as monolayer cultures in an appropriate complete medium: MCF-7 and ARPE-19 in high glucose DMEM complete medium (including 10% FBS, 1 mM sodium pyruvate, 2 mM L-glutamine and 1% pen-strep) and MDA-MB-231 in RPMI-1640 complete medium (including 10% FBS, 1 mM sodium pyruvate, 2 mM L-glutamine and 1% pen-strep) and grown in either T-25 or T-75 flasks at 37 °C and 5% CO2. Prior to chemosensitivity studies, cell monolayers were passaged using Trypsin-EDTA (0.05%) and diluted to a concentration of 4 × 10^4 cells/mL. All assays were conducted using 96-well plates, in which 100 μL of the cell suspension was added for 24 h at 37 °C and 5% CO2 and then 100 μL of compound/media dilutions for a further 24 h (compound stocks were made using sterile DMSO at 100 mM prior to dilution and a maximum of 0.1% DMSO used in each assay).

Experiment [2] has as its system MCF-7. The experiment is described as follows: Cell viability (MTT) assay, 24 h. The format is cell-based, human. The note with it: for IC50: 24 h treatment, MTT, n = 9, read-out: IC50 ± SD, MCF-7. Here is the method:
as §1, §2

Experiment [3] deals with MDA-MB-231. The experiment is described as follows: Cell viability (MTT) assay, 24 h. Format: cell-based, human. To be noted: for IC50: 24 h treatment, MTT, n = 9, read-out: IC50 ± SD, MDA-MB-231; for MCF-7/MDA-MB-231 SR (selectivity ratio): ratio of IC50 MCF-7 versus MDA-MB-231. Here is the method:
as §1, §2

For experiment [4], the system named is DNA. Also on record: method as in PMID 27060216. The note with it: cited from earlier work.
The mark [5] stands for this setting: Homo sapiens, ARPE-19, 24 h treatment.

SMILES strings stand for the structures. Where two headings read alike, the source gives them in different places.

In the case of `[NH2][Pt]([NH2])([Cl])[Cl]` [CDDP, cisplatin, reference compound], the IC50 in experiment [1] (24 h treatment) is over 100 µM; in experiment [2], 54 ± 3 µM; in experiment [3], over 100 µM. For the same compound, the “Selectivity index (SI) MCF-7 vs ARPE-19” value in experiment [2] (SI > 1 indicates selectivity for the breast cancer line, * = minimum value) was at least 1.84. For the same compound, the “MCF-7/MDA-MB-231 SR (selectivity ratio)” value in experiment [3] is listed as under 0.54.

In the case of `Fc1ccc(C[n+]2cn(Cn3c[n+](Cc4ccc(F)cc4)c4ccccc43)c3ccccc32)cc1` [H2L4(PF6)2, 1,1′-Bis-(4-fluorobenzyl)-3,3′-methylenedibenzimidazolium dihexafluorophosphate], the IC50 in experiment [1] (setting [5]) is over 100 µM; in experiment [2] (Homo sapiens, MCF7), over 100 µM; in experiment [3] (Homo sapiens, MDA-MB-231), over 100 µM.

With `Fc1ccc(Cn2c[n+](Cc3ccc(F)cc3)c3ccccc32)cc1` [HL2(PF6), 1,3-Bis-(4-fluorobenzyl)benzimidazolium hexafluorophosphate], the concentration for half-maximal inhibition (IC50) was over 100 µM in experiment [1] (setting [5]); over 100 µM in experiment [2] (Homo sapiens, MCF7); 42.6 ± 0.05 µM in experiment [3] (Homo sapiens, MDA-MB-231). Moreover, the “MCF-7/MDA-MB-231 SR (selectivity ratio)” value in experiment [3] is over 2.35.

`COc1cccc2c1C(=O)c1c(O)c3c(c(O)c1C2=O)C[C@@](O)(C(=O)CO)C[C@@H]3O[C@H]1C[C@H](N)[C@H](O)[C@H](C)O1` [doxorubicin]: the “Binding constant to DNA” value in experiment [4] is 2.33 ± 0.33 × 10^4 M^–1.
